Measured values taken from patent US11319315B2, “Cyclohexyl acid triazole azoles as LPA antagonists” (BRISTOL-MYERS SQUIBB COMPANY, priority 2017, dated 2022).

Target: T1, human LPA1 (Homo sapiens, UniProt Q92633)
T1 construct: expressed in transfected cells; host or cells: Chinese hamster ovary (CHO) cells
Assay: LPA1 functional antagonist assay (LPA-induced calcium flux in CHO cells overexpressing human LPA1)
Type: cell-based
Details: inhibition of calcium flux induced by 10 nM LPA, CHO cells overexpressing human LPA1; read-out: hLPA1 IC50
Method in brief: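 CHO cells overexpressing human LPA1, dye-loaded 30 min at 37 °C, then given compound (0.08 nM–5 μM final, 0.5% DMSO) in HBSS/20 mM HEPES/0.1% fatty-acid-free BSA for 20 min at room temperature before 10 nM LPA. IC50 as 50% inhibition of LPA-evoked calcium flux, 4-parameter logistic fit.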

T1 sequence (Q92633 whole entry): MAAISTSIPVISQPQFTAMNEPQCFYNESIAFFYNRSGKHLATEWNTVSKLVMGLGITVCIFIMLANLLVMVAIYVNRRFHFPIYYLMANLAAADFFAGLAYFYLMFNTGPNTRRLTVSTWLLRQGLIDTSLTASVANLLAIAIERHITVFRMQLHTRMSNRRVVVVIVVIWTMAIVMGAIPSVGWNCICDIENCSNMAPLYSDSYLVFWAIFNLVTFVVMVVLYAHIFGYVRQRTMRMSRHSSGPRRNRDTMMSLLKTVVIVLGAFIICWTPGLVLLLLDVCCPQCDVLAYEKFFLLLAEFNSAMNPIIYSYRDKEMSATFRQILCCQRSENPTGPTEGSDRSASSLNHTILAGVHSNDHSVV

Point of comparison: Cc1nc(-c2nnn(C)c2Cc2noc(CCC(F)(F)F)n2)ccc1O[C@H]1CCC[C@H](C(=O)O)C1 [Example 240], IC50 61 nM. Against it:
- Cc1nc(-c2nnn(C)c2Cc2nc(CCC(C)C)no2)ccc1O[C@H]1CCC[C@H](C(=O)O)C1 [Example 241, (1 S,3 S)-3-((6-(5-((3-isopentyl-1,2,4-oxadiazol-5-yl)methyl)-1-methyl-1H-1,2,3-triazol-4-yl)-2-methylpyridin-3-yl)oxy)cyclohexane-1-carboxylic acid] — 1.8-fold lower, 33 nM
- COc1cccc(Cc2noc(Cc3c(-c4ccc(O[C@H]5CCC[C@H](C(=O)O)C5)c(C)n4)nnn3C)n2)c1 [Example 242, (1S,3S)-3-((6-(5-((3-(3-methoxy-benzyl)-1,2,4-oxadiazol-5-yl)methyl)-1-methyl-1H-1,2,3-triazol-4-yl)-2-methylpyridin-3-yl)oxy)cyclohexane-1-carboxylic acid] — 33-fold higher, 2020 nM
- Cc1nc(-c2nnn(C)c2Cc2nc(CC(C)C)no2)ccc1O[C@H]1CCC[C@H](C(=O)O)C1 [Example 243, (1S,3S)-3-((6-(5-((3-isobutyl-1,2,4-oxadiazol-5-yl)methyl)-1-methyl-1H-1,2,3-triazol-4-yl)-2-methylpyridin-3-yl)oxy)cyclohexane-1-carboxylic acid] — within 1.5-fold, 58 nM
- Cc1nc(-c2nnn(C)c2Cc2nc(Cc3ccccc3)no2)ccc1O[C@H]1CCC[C@H](C(=O)O)C1 [Example 244, (1S,3S)-3-((6-(5-((3-benzyl-1,2,4-oxadiazol-5-yl)methyl)-1-methyl-1H-1,2,3-triazol-4-yl)-2-methylpyridin-3-yl)oxy)cyclohexane-1-carboxylic acid] — 1.5-fold lower, 40 nM
- Cc1nc(-c2nnn(C)c2Cc2nc(-c3ccccc3)no2)ccc1O[C@H]1CCC[C@H](C(=O)O)C1 [Example 245, (1S,3S)-3-((2-methyl-6-(1-methyl-5-((3-phenyl-1,2,4-oxadiazol-5-yl)methyl)-1H-1,2,3-triazol-4-yl)pyridin-3-yl)oxy)cyclohexane-1-carboxylic acid] — within 1.5-fold, 79 nM
- Cc1nc(-c2nnn(C)c2Cc2nc(CC3CC3)no2)ccc1O[C@H]1CCC[C@H](C(=O)O)C1 [Example 246, (1S,3S)-3-((6-(5-((3-(cyclopropyl-methyl)-1,2,4-oxadiazol-5-yl)methyl)-1-methyl-1H-1,2,3-triazol-4-yl)-2-methylpyridin-3-yl)oxy)cyclohexane-1-carboxylic acid] — 1.5-fold lower, 40 nM
- CCCc1noc(Cc2c(-c3ccc(O[C@H]4CCC[C@H](C(=O)O)C4)c(C)n3)nnn2C)n1 [Example 247, (1S,3S)-3-((2-methyl-6-(1-methyl-5-((3-propyl-1,2,4-oxadiazol-5-yl)methyl)-1H-1,2,3-triazol-4-yl)pyridin-3-yl)oxy)cyclohexane-1-carboxylic acid] — within 1.5-fold, 82 nM
- Cc1nc(-c2nnn(C)c2Cc2nc(COC(C)C)no2)ccc1O[C@H]1CCC[C@H](C(=O)O)C1 [Example 248, (1S,3S)-3-((6-(5-((3-(isopropoxy-methyl)-1,2,4-oxadiazol-5-yl)methyl)-1-methyl-1H-1,2,3-triazol-4-yl)-2-methylpyridin-3-yl)oxy)cyclohexane-1-carboxylic acid] — the same, 61 nM
- CCOCc1noc(Cc2c(-c3ccc(O[C@H]4CCC[C@H](C(=O)O)C4)c(C)n3)nnn2C)n1 [Example 249, (1S,3S)-3-((6-(5-((3-(ethoxymethyl)-1,2,4-oxadiazol-5-yl)methyl)-1-methyl-1H-1,2,3-triazol-4-yl)-2-methylpyridin-3-yl)oxy)cyclohexane-1-carboxylic acid] — within 1.5-fold, 76 nM
- Cn1nnc(-c2ccc(O[C@H]3CCC[C@H](C(=O)O)C3)cn2)c1Cn1nnc(CC2CC2)n1 [Example 250, (1 S,3 S)-3-((6-(5-((5-(cyclopropylmethyl)-2H-tetrazol-2-yl)methyl)-1-methyl-1H-1,2,3-triazol-4-yl)pyridin-3-yl)oxy)cyclohexane-1-carboxylic acid] — within 1.5-fold, 44 nM
